Assay results as given in ChEMBL document CHEMBL4840335, “Rational Design and Development of Novel CDK9 Inhibitors for the Treatment of Acute Myeloid Leukemia” (J Med Chem, 2021).
Activity calls are given as the source filed them. The rule behind the calls is not given here.

Experiments:
[1] = molecular target: Discoidin domain-containing receptor 2 (Homo sapiens, UniProt Q16832); test: Inhibition of DDR2 (unknown origin)
[2] = molecular target: Platelet-derived growth factor receptor beta (Homo sapiens, UniProt P09619); test: Inhibition of PDGFRB (unknown origin)
Chain of Platelet-derived growth factor receptor beta (P09619 whole entry): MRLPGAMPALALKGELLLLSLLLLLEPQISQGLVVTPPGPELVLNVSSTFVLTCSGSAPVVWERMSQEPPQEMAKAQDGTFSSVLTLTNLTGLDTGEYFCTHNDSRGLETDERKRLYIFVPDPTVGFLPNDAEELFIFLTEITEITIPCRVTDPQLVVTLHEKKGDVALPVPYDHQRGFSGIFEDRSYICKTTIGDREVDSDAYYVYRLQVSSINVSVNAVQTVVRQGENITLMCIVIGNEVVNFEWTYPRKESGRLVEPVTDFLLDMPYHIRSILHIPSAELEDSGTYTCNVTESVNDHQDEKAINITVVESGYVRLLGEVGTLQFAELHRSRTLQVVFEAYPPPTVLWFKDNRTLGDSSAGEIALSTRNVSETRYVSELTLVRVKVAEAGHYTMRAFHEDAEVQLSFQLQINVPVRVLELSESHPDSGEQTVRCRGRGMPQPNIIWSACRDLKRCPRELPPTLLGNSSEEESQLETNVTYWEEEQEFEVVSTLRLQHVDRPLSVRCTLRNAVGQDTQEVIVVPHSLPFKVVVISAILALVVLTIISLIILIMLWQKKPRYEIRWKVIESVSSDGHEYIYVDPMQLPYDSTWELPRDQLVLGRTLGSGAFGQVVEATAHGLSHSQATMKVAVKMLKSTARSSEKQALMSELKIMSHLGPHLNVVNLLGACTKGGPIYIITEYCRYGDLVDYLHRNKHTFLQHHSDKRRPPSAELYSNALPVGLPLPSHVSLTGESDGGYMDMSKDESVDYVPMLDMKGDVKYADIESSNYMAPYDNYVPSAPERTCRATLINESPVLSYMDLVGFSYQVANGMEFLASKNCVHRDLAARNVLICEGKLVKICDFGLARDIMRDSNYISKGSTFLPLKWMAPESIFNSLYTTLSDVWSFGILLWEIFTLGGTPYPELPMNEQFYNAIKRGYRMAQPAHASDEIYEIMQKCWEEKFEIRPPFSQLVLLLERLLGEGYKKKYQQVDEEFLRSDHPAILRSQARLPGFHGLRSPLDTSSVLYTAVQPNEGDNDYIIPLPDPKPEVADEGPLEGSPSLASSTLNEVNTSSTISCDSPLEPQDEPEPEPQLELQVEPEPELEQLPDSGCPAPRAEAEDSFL

[3] = molecular target: Cyclin-dependent kinase 7 (Homo sapiens, UniProt P50613); test: Inhibition of CDK7 (unknown origin)
[4] = Cmax in ICR mouse at 20 mg/kg, po measured up to 24 hrs; format: ADME, organism-based; set-up: route oral, dose 20 mg/kg, time <=24; settings: in vivo
MV4-11 [5] = test: Induction of apoptosis in human MV4-11 cells assessed as live cells at 10 nM measured after 24 hrs by annexinV-FITC/propidium iodide staining based flow cytometry (reference value: 95.14 %); format: functional
[6] = molecular target: Proto-oncogene tyrosine-protein kinase Src (Homo sapiens, UniProt P12931); test: Inhibition of SRC (unknown origin)
TMD8 = test: Antiproliferative activity against human TMD8 cells assessed as reduction in cell proliferation measured after 3 to 7 days by MTS assay; format: functional, cell-based
[7] = Tmax in ICR mouse at 20 mg/kg, po measured up to 24 hrs; format: ADME, organism-based; settings: in vivo
[8] = molecular target: Platelet-derived growth factor receptor alpha (Homo sapiens, UniProt P16234); test: Inhibition of PDGFRA (unknown origin)
[9] = Toxicity in Nu/Nu mouse xenografted with human MV4-11 cells assessed as change in body weight at 7.5 mg/kg, po administered for 21 consecutive days and measured on day 22 (reference value: 23.9 +/- 0.7 g); format: organism-based; settings: in vivo, 528 h, time 22 day
MV4-11 [10] = test: Antitumor activity against human MV4-11 cells xenografted in Nu/Nu mouse assessed as inhibition of tumor growth at 7.5 mg/kg, po administered for 21 consecutive days by digital caliper method relative to control; format: functional; settings: MV4-11, po, 504 h, time 21 day
MV4-11 [11] = test: Induction of apoptosis in human MV4-11 cells assessed as live cells at 50 nM measured after 24 hrs by annexinV-FITC/propidium iodide staining based flow cytometry (reference value: 95.14 %); format: functional
MV4-11 [12] = test: Antitumor activity against human MV4-11 cells xenografted in Nu/Nu mouse assessed as change in tumor volume at 7.5 mg/kg, po administered for 21 consecutive days by digital caliper method and measured on day 22 (reference value: 127 +/- 16 mm3); format: functional; settings: time 22 day
[13] = molecular target: Proto-oncogene tyrosine-protein kinase receptor Ret (Homo sapiens, UniProt P07949); test: Inhibition of RET (unknown origin)
[14] = MRT in ICR mouse at 2 mg/kg, iv measured up to 24 hrs; format: ADME, organism-based; settings: in vivo
[15] = molecular target: Fibroblast growth factor receptor 1 (Homo sapiens, UniProt P11362); test: Inhibition of FGFR1 (unknown origin)
[16] = molecular target: Serine/threonine-protein kinase Chk2 (Homo sapiens, UniProt O96017); test: Inhibition of CHK2 (unknown origin)
Chain of Serine/threonine-protein kinase Chk2 (O96017 whole entry): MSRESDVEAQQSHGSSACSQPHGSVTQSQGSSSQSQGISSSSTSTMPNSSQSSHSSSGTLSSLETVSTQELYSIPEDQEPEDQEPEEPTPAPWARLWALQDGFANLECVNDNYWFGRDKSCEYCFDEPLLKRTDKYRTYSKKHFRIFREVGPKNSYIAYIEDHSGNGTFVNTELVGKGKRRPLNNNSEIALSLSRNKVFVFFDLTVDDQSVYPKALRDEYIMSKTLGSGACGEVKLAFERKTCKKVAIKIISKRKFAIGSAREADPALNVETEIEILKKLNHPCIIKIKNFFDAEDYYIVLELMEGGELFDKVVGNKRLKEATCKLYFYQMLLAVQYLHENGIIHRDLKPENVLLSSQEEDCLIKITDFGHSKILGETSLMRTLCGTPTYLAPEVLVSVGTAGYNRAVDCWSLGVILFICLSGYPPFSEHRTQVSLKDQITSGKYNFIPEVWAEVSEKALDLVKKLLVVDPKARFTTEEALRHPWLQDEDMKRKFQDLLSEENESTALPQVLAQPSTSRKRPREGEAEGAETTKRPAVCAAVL

CDK9/cyclin T1 = CDK9/cyclin T1 (Homo sapiens, UniProt P50750); test: Inhibition of CDK9/cyclin T1 (unknown origin) incubated for 2 hrs in presence of ATP by FRET based LANCE assay; format: protein-complex assay
Chain of CDK9/cyclin T1 (O60563 whole entry): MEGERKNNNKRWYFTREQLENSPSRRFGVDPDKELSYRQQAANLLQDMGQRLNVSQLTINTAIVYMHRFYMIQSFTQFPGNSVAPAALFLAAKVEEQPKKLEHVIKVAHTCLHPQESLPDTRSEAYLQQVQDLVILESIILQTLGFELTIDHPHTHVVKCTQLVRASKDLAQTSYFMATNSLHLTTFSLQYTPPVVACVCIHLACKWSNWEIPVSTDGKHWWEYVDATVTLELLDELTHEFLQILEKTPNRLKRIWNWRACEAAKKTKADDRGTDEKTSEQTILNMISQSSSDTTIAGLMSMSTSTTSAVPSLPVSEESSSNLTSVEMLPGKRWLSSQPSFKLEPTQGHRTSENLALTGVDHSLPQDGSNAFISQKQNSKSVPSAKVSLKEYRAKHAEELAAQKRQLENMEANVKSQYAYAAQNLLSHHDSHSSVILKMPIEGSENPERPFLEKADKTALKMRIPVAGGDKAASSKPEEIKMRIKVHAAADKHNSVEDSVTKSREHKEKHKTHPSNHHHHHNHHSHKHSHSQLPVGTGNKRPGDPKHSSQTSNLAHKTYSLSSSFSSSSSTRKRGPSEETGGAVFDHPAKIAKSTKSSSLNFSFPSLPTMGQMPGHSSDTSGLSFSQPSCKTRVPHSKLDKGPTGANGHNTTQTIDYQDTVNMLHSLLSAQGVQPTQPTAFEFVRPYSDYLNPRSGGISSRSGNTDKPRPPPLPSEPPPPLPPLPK
Chain of CDK9/cyclin T1 (P50750 whole entry): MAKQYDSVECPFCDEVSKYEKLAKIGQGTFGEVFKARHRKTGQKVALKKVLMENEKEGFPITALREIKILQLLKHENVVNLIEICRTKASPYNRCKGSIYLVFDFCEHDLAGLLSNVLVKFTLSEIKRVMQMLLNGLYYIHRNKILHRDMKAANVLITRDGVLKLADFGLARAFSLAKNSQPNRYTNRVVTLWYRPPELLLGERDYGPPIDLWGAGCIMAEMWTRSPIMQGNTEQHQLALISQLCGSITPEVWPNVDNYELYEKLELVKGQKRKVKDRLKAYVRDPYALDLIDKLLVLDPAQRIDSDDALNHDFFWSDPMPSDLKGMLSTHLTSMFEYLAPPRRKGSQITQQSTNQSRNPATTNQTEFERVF

[17] = AUClast in ICR mouse at 20 mg/kg, po measured up to 24 hrs; format: ADME, organism-based; set-up: route oral, dose 20 mg/kg, time <=24; settings: in vivo
[18] = AUClast in ICR mouse at 2 mg/kg, iv measured up to 24 hrs; format: ADME, organism-based; set-up: route intravenous, dose 2 mg/kg, time <=24; settings: in vivo
MV4-11 [19] = test: Antiproliferative activity against human MV4-11 cells assessed as reduction in cell proliferation measured after 3 to 7 days by MTS assay; format: functional, cell-based
JeKo-1 = test: Antiproliferative activity against human JeKo-1 cells assessed as reduction in cell proliferation measured after 3 to 7 days by MTS assay; format: functional, cell-based
Insulin receptor = Insulin receptor (Homo sapiens, UniProt P06213); test: Inhibition of IR (unknown origin)
Chain of Insulin receptor (P06213 28-758 limits assumed): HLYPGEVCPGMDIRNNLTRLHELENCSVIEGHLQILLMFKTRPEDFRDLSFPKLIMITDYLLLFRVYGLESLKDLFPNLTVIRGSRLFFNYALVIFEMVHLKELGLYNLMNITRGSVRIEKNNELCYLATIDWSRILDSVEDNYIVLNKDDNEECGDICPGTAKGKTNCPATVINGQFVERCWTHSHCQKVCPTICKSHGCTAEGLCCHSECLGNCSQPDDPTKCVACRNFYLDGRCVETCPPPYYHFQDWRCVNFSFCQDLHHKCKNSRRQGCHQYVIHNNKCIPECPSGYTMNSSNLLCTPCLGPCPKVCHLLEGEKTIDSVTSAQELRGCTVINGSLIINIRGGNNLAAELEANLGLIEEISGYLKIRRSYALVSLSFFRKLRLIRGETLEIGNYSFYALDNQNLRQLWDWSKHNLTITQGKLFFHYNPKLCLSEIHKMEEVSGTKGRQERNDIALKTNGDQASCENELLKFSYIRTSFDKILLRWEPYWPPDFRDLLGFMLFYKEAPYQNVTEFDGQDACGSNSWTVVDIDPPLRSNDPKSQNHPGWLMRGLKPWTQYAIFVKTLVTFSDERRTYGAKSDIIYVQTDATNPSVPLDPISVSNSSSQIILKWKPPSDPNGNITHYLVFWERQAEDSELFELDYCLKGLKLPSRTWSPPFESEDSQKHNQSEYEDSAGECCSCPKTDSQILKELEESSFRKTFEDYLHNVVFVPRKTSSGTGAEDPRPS
Chain of Insulin receptor (P06213 763-1382 limits assumed): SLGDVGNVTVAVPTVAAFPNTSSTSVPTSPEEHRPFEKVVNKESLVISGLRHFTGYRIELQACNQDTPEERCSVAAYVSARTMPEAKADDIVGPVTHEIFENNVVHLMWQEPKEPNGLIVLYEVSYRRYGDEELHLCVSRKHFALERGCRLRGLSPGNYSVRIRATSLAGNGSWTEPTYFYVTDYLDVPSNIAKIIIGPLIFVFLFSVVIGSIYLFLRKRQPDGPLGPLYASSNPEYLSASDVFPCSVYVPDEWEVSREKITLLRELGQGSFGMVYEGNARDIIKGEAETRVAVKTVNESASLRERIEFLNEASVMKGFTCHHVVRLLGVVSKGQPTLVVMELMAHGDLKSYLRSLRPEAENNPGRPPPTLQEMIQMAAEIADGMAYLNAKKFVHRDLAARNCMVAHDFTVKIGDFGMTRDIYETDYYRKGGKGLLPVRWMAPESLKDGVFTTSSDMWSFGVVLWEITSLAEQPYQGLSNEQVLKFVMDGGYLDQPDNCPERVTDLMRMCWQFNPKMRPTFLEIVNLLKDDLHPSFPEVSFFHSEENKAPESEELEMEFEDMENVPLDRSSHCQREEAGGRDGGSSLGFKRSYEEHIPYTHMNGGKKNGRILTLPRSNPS

MV4-11 [20] = test: Induction of apoptosis in human MV4-11 cells assessed as early apoptotic cells at 50 nM measured after 24 hrs by annexinV-FITC/propidium iodide staining based flow cytometry (reference value: 0.79 %); format: functional
[21] = molecular target: Cyclin-dependent kinase 2 (Homo sapiens, UniProt P24941); test: Inhibition of CDK2 (unknown origin)
Ephrin type-A receptor 2 = Ephrin type-A receptor 2 (Homo sapiens, UniProt P29317); test: Inhibition of EPHA2 (unknown origin)
[22] = Half life in ICR mouse at 2 mg/kg, iv measured up to 24 hrs; format: ADME, organism-based; settings: in vivo
MV4-11 [23] = test: Antitumor activity against human MV4-11 cells xenografted in Nu/Nu mouse assessed as relative tumor volume at 7.5 mg/kg, po administered for 21 consecutive days by digital caliper method; format: functional; settings: time 22 day
Aurora kinase A = Aurora kinase A (Homo sapiens, UniProt O14965); test: Inhibition of AURKA (unknown origin)
MV4-11 [24] = test: Induction of apoptosis in human MV4-11 cells assessed as activation of cleaved PARP at 5 to 50 nM measured after 24 hrs by Western blot analysis; format: functional, cell-based; settings: dose 5-50 nM
[25] = MRT in ICR mouse at 20 mg/kg, po measured up to 24 hrs; format: ADME, organism-based; settings: in vivo
MV4-11 [26] = test: Antitumor activity against human MV4-11 cells xenografted in Nu/Nu mouse assessed as tumor growth suppression by measuring T/C ratio at 7.5 mg/kg, po administered for 21 consecutive days by digital caliper method relative to control; format: functional; settings: time 21 day

Chain of Discoidin domain-containing receptor 2 (Q16832 whole entry, the tested form may be a part): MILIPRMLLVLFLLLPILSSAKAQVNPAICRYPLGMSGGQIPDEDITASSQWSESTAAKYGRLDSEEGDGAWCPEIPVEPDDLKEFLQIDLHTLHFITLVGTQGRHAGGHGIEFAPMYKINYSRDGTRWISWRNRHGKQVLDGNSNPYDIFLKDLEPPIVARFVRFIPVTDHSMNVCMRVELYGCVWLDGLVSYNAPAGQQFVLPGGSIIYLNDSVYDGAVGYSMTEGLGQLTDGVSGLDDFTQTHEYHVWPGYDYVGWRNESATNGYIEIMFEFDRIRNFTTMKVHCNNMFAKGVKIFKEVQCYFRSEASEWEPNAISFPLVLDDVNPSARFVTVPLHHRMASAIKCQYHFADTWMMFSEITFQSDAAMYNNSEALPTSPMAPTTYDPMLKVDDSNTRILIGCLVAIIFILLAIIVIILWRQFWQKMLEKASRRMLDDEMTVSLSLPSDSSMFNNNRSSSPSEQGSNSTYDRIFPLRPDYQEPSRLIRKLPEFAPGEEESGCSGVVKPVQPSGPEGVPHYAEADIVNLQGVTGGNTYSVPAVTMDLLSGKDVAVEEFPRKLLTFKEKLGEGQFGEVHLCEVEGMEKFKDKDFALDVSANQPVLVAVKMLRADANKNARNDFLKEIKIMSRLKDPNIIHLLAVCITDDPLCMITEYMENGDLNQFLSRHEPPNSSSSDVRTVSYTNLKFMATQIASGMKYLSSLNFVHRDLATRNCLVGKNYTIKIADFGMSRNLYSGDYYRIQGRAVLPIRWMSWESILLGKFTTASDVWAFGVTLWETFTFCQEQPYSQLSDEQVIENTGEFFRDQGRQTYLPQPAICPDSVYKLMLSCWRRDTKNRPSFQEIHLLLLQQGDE

IC50 [1]: > 1000 nM
IC50 [2]: > 1000 nM
IC50 [3]: > 1000 nM
Cmax [4]: 1570 ng/mL
IC50 [6]: > 1000 nM
Tmax [7]: 4.98 min
IC50 [8]: > 1000 nM
IC50 [13]: > 1000 nM
MRT [14]: 0.73 h
IC50 [15]: > 1000 nM
IC50 [16]: > 1000 nM
IC50 (CDK9/cyclin T1): 5.41 nM
AUC(0-t) at 24 h [17]: 1760 ng·h/mL
AUC(0-t) at 24 h [18]: 553 ng·h/mL
IC50 (MV4-11 [19]): 1.6 nM
IC50 (Insulin receptor): > 1000 nM
IC50 [21]: 164 nM
IC50 (Ephrin type-A receptor 2): > 1000 nM
half-life [22]: 1.81 h
IC50 (Aurora kinase A): > 1000 nM
MRT [25]: 5.99 h
Structure (SMILES): Cc1n[nH]c2ccc(-c3cc(N[C@@H](CO)c4ccccc4)cnc3Cl)cc12
Activity (MV4-11 [5]): 94.45%
IC50 (TMD8): 46 nM
Activity [9]: 22.1 g
inhibition in vivo at 7.5 mg/kg (MV4-11 [10]): 77.4%
Activity (MV4-11 [11]): 76.29%
Activity (MV4-11 [12]): 371 mm3
IC50 (JeKo-1): 46 nM
Activity (MV4-11 [20]): 3.23%
Activity (MV4-11 [23]): 2.86
Activity (MV4-11 [24]): Active
T/C (MV4-11 [26]): 27.8%
